The record followed here is US20110053993A1, “PRODRUGS OF DESAZADESFERROTHIOCIN POLYETHER ANALOGUES AS METAL CHELATION AGENTS” (FERROKIN BIOSCIENCES, INC., priority 2009, published 2011).

The nature of the data set: In vitro pharmacokinetic (metabolic) stability in human whole blood. The data set is classed as in vitro ADME. To be noted: 5 μM test compound, 37° C., time points 0, 0.5, 1, 4, 6 and 24 hours, LC/MS/MS, percent compound remaining. As to the method:
In Vitro Pharmacokinetic Stability Evaluation
Compounds were tested for metabolic stability in human whole blood. Such testing is commonly undertaken prior to or along with advanced preclinical testing in order to identify compounds with desirable pharmacokinetic properties. Into each of 6 centrifuge tubes was added 2 μL of test compound and 198 μL of human whole blood, taken from normal, healthy volunteers, to achieve a final concentration of 5 μM. Tubes were then incubated at 37° C. at approximately 100 rpm on an orbital shaker. One of the tubes was taken at designated time points including 0, 0.5, 1, 4, 6 and 24 hours. The reaction was stopped by the addition of 4 volumes of cold methanol. Samples were centrifuged at 20,000 rpm for 20 minutes to precipitate protein. A 200 μL aliquot of the supernatant was used for LC/MS/MS analysis for each compound at each time point. All experiments were performed in duplicate. The LC system comprised a Shimadzu liquid chromatograph separation system equipped with degasser DGU-20A3, solvent delivery unit LC-20AD, system controller CBM-20A, column oven CTO-10ASVP and CTC Analytics HTC PAL System. Mass spectrometric analysis was performed using an API 4000 instrument from AB Inc. (Canada) with an ESI interface. The data acquisition and control system were created using Analyst 1.5 software from ABI Inc. All calculations were carried out using Microsoft Excel (2003). Percent compound remaining at each time point was estimated by determining the peak areas from extracted ion chromatograms.

Take `COCCOCCOCCOc1cccc(C2=N[C@@](C)(C(=O)O)CS2)c1OC(=O)N(C)c1ccccc1` [Example 5, (S)-2-(3-(2-(2-(2-methoxyethoxy)ethoxy)ethoxy)-2-(methyl(phenyl)carbamoyloxy)phenyl)-4-methyl-4,5-dihydrothiazole-4-carboxylic acid]: the “Half Life” value lay within 0.5 to 1 h.

On to `COCCOCCOCCOc1cccc(C2=N[C@@](C)(C(=O)O)CS2)c1OC(=O)C(C)C` [Example 6, (S)-2-(2-(isobutyryloxy)-3-(2-(2-(2-methoxyethoxy)ethoxy)ethoxy)phenyl)-4-methyl-4,5-dihydrothiazole-4-carboxylic acid], for which the “Half Life” value lay in the range of 6 to 24 h.

Consider `COCCOCCOCCOc1cccc(C2=N[C@@](C)(C(=O)OC(C)C)CS2)c1O` [Example 1, (S)-isopropyl 2-(2-hydroxy-3-(2-(2-(2-methoxyethoxy)ethoxy)ethoxy)phenyl)-4-methyl-4,5-dihydrothiazole-4-carboxylate], for which the “Half Life” value is 1 to 4 h.

Take `COCCOCCOCCOc1cccc(C2=N[C@@](C)(C(=O)OC(C)C)CS2)c1OC(=O)N1CCCC1` [Example 2, (S)-isopropyl 2-(3-(2-(2-(2-methoxyethoxy)ethoxy)ethoxy)-2-(pyrrolidine-1-carbonyloxy)phenyl)-4-methyl-4,5-dihydrothiazole-4-carboxylate]: the “Half Life” value is greater than 24 h.

Regarding `COCCOCCOCCOc1cccc(C2=N[C@@](C)(C(=O)O)CS2)c1OC(=O)N1CCCC1` [Example 3, (S)-2-(3-(2-(2-(2-methoxyethoxy)ethoxy)ethoxy)-2-(pyrrolidine-1-carbonyloxy)phenyl)-4-methyl-4,5-dihydrothiazole-4-carboxylic acid], the “Half Life” value lay within 1 to 4 h.

On to `COCCOCCOCCOc1cccc(C2=N[C@@](C)(C(=O)OC(C)C)CS2)c1OC(=O)N(C)c1ccccc1` [Example 4, (S)-isopropyl 2-(3-(2-(2-(2-methoxyethoxy)ethoxy)ethoxy)-2-(methyl(phenyl)carbamoyloxy)phenyl)-4-methyl-4,5-dihydrothiazole-4-carboxylate], for which the “Half Life” value is greater than 24 h.
